How the values were obtained:
[1] = system: collagen induced arthritis (CIA); conditions: literature (Chiba et al., Arthritis Rheum. 2004); cited from earlier work
[2] = system: experimental autoimmune encephalomyelitis (EAE); conditions: literature (Miyamoto et al., Nature 2001); cited from earlier work
NKT cells = assay: Effect of the compound on NKT cells (liver mononuclear cells incubated with compound); assay type: cell-based, C57BL/6J mice; conditions: 48 hours incubation, FIG. 4
Procedure: Mononuclear cells were isolated from the liver of C57BL/6J mice (8 weeks old, female) and are incubated with the compound for 48 hours.

| SMILES | suppression of diseases in CIA [1] | suppression of diseases in EAE [2] | IFN-γ production (ELISA, supernatant) (NKT cells) | IL-4 production (ELISA, supernatant) (NKT cells) | cell proliferation (uptake of tritium thymidine) (NKT cells) |
| --- | --- | --- | --- | --- | --- |
| CCCCCCCCCCCCCCCCCCCCCCCC(=O)N[C@@H](COC1OC(CO)C(O)C(O)C1O)[C@H](O)[C@H](O)CCCCC (some centres unmarked) [OCH] | high effectiveness | high effectiveness |  |  |  |
| CCCCCCCCCCCCCCCCCCCCCCCCCC(=O)N[C@@H](COC1OC(CO)C(O)C(O)C1O)[C@H](O)[C@H](O)CCCCCCCCCCCCCC (stereo partly drawn) [α-GC, α-galactosyl ceramide] |  |  | induced | induced | induced |

Source: patent publication US20090048185A1, “Therapeutic Drug for Suppressing Functions of NKT Cells Containing Glycolipid Derivative as Active Ingredient” (priority 2005, published 2009)
